Experiment: xn = mol fraction of the nth substance listed

Clc1cccc2ccccc12 + c1ccccc1
viscosity [mPa·s], 101.33 kPa
Settings	x1 = 0.0989	x1 = 0.2022	x1 = 0.3275	x1 = 0.3981	x1 = 0.5035	x1 = 0.5982	x1 = 0.7022	x1 = 0.7973	x1 = 0.8976
298.15 K	0.655	0.792	0.96	1.078	1.294	1.475	1.731	2.022	2.38
303.15 K	0.609	0.727	0.903	0.994	1.188	1.349	1.586	1.833	2.126
308.15 K	0.571	0.679	0.843	0.922	1.098	1.242	1.452	1.669	1.928

COC(C)(C)C + c1ccccc1
Settings	viscosity [mPa·s]
293.15 K, 101.33 kPa, x1 = 0.0933	0.629
293.15 K, 101.33 kPa, x1 = 0.1906	0.5805
293.15 K, 101.33 kPa, x1 = 0.2994	0.5449
293.15 K, 101.33 kPa, x1 = 0.3965	0.5122
293.15 K, 101.33 kPa, x1 = 0.5143	0.4813
293.15 K, 101.33 kPa, x1 = 0.6083	0.4593
293.15 K, 101.33 kPa, x1 = 0.7015	0.4466
293.15 K, 101.33 kPa, x1 = 0.8071	0.416
293.15 K, 101.33 kPa, x1 = 0.9024	0.4052
298.15 K, 101 kPa, x1 = 0.0502	0.566
298.15 K, 101 kPa, x1 = 0.0999	0.551
298.15 K, 101 kPa, x1 = 0.1994	0.499
298.15 K, 101 kPa, x1 = 0.3005	0.473
298.15 K, 101 kPa, x1 = 0.4006	0.457
298.15 K, 101 kPa, x1 = 0.5003	0.437
298.15 K, 101 kPa, x1 = 0.6	0.422
298.15 K, 101 kPa, x1 = 0.7003	0.397
298.15 K, 101 kPa, x1 = 0.8	0.395
298.15 K, 101 kPa, x1 = 0.8997	0.376
298.15 K, 101 kPa, x1 = 0.9497	0.372
298.15 K, 101.33 kPa, x1 = 0.0933	0.5806
298.15 K, 101.33 kPa, x1 = 0.1906	0.5446
298.15 K, 101.33 kPa, x1 = 0.2994	0.5084
298.15 K, 101.33 kPa, x1 = 0.3965	0.4776
298.15 K, 101.33 kPa, x1 = 0.5143	0.4676
298.15 K, 101.33 kPa, x1 = 0.6083	0.4417
298.15 K, 101.33 kPa, x1 = 0.7015	0.4227
298.15 K, 101.33 kPa, x1 = 0.8071	0.4037
298.15 K, 101.33 kPa, x1 = 0.9024	0.398
303.15 K, 101 kPa, x1 = 0.118	0.536
303.15 K, 101 kPa, x1 = 0.2242	0.51
303.15 K, 101 kPa, x1 = 0.3408	0.483
303.15 K, 101 kPa, x1 = 0.5123	0.445
303.15 K, 101 kPa, x1 = 0.6615	0.413
303.15 K, 101 kPa, x1 = 0.8195	0.382

CCCCn1cc[n+](C)c1.F[P-](F)(F)(F)(F)F + NCCO
viscosity [mPa·s], 101 kPa
Settings	x2 = 0.1185	x2 = 0.2113	x2 = 0.3052	x2 = 0.4282	x2 = 0.4918	x2 = 0.6161	x2 = 0.6984	x2 = 0.8022	x2 = 0.9028
293.15 K	–	124.5	102.5	78.15	68.3	51.7	43.55	34.1	27.33
298.15 K	–	92.28	76.44	58.74	51.63	39.18	33.39	26.29	–
303.15 K	–	–	57.84	44.92	39.41	30.4	25.89	–	–
308.15 K	67.48	54.83	44.08	34.54	30.31	–	–	–	–
313.15 K	–	42.41	34.89	27.36	–	–	–	–	–
318.15 K	42.44	33.84	28.14	–	–	–	–	–	9.08
323.15 K	34.88	28.08	–	–	–	–	–	9.09	7.67

C=CC(=O)OCC + c1ccccc1
viscosity [mPa·s], 101 kPa
Settings	x2 = 0.1283	x2 = 0.2137	x2 = 0.3255	x2 = 0.4115	x2 = 0.5361	x2 = 0.6109	x2 = 0.7033	x2 = 0.8074	x2 = 0.9025
298.15 K	0.531	0.533	0.537	0.541	0.55	0.558	0.568	0.579	0.591
303.15 K	0.499	0.5	0.501	0.502	0.509	0.516	0.524	0.535	0.548
308.15 K	0.461	0.46	0.461	0.462	0.466	0.472	0.481	0.495	0.508
313.15 K	0.412	0.41	0.411	0.412	0.415	0.42	0.431	0.444	0.458

CCc1ccccc1 + CCCO
viscosity [mPa·s], 101.33 kPa
Settings	x2 = 0.3	x2 = 0.5	x2 = 0.7	x2 = 0.9
303 K	0.646	0.826	1.01	1.335
313 K	0.561	0.697	0.839	1.084
323 K	0.494	0.598	0.7	0.886

COCCOCCOCCOCCOC + COC(=O)OC
298.15 K, 101.33 kPa
Settings	viscosity [mPa·s]
x1 = 0.0013	0.595
x1 = 0.0051	0.603
x1 = 0.0117	0.623
x1 = 0.0228	0.642
x1 = 0.0349	0.673
x1 = 0.0584	0.726
x1 = 0.0861	0.792
x1 = 0.1164	0.875
x1 = 0.1595	0.994
x1 = 0.2094	1.132
x1 = 0.3042	1.414
x1 = 0.3316	1.499
x1 = 0.3593	1.576
x1 = 0.3994	1.703
x1 = 0.4379	1.815
x1 = 0.477	1.945
x1 = 0.5477	2.159
x1 = 0.6174	2.382
x1 = 0.6892	2.606
x1 = 0.7492	2.781
x1 = 0.7839	2.888
x1 = 0.8643	3.113
x1 = 0.9142	3.237
x1 = 0.949	3.324
x1 = 0.9732	3.369

COCCOCCOCCOCCOC + CCOC(C)=O
viscosity [mPa·s], 101 kPa
Settings	298.15 K	308.15 K	318.15 K
x1 = 0.0108	0.448	0.399	0.364
x1 = 0.0195	0.462	0.413	0.375
x1 = 0.0488	0.514	0.456	0.413
x1 = 0.0905	0.594	0.521	0.465
x1 = 0.1406	0.695	0.607	0.534
x1 = 0.1786	0.779	0.673	0.591
x1 = 0.2377	0.919	0.784	0.68
x1 = 0.3377	1.176	0.988	0.847
x1 = 0.4796	1.579	1.315	1.092
x1 = 0.5793	1.896	1.549	1.282
x1 = 0.6422	2.11	1.699	1.4
x1 = 0.7422	2.453	1.97	1.549
x1 = 0.8246	2.726	2.169	1.755
x1 = 0.8574	2.878	2.258	1.826
x1 = 0.9081	3.019	2.398	1.921
x1 = 0.9454	3.159	2.488	1.998
x1 = 0.9792	3.305	2.581	2.072

N#CCCCCC#N + CS(C)=O
303.15 K, 101.33 kPa
Settings	viscosity [mPa·s]
x1 = 0.1031	2.027
x1 = 0.2999	2.489
x1 = 0.4015	2.76
x1 = 0.5024	3.06
x1 = 0.5947	3.343
x1 = 0.6945	3.682
x1 = 0.8441	4.243

CC(F)(F)F + FC(F)C(F)(F)F
viscosity [mPa·s], 101 kPa
Settings	x1 = 0.248	x1 = 0.5	x1 = 0.759
298.15 K	0.1286	0.1205	0.117
313.15 K	0.1036	–	–

Source: the CheMixHub viscosity set
